Test results published in patent US20240336604A1 (THE UNITED STATES OF AMERICA, AS REPRESENTED BY THE …, priority 2021, published 2024).
pIC50: −log10 of the molar value.

Experiments:
Assay type in all cases: cell-based
D2 DAR [1] = biological target: T1, D2 DAR (Homo sapiens, UniProt P14416); assay: BRET β-arrestin recruitment assay, D2 DAR; conditions: FIG. 3A right
Procedure: BRET β-arrestin recruitment assay: As an orthogonal test using an unrelated assay of D2- or D3 DAR-mediated β-arrestin recruitment, an arrestin BRET assay was conducted. HEK293T cells transiently expressing D2-Rluc8, Arrestin3-mvenus and GRK2, or D3-Rluc8, Arrestin3-mvenus, and GRK3 were harvested with EBSS, plated in 96-well plates in Dulbecco's phosphate-buffered saline (DPBS) and incubated at rt for 45 min. […] BRET signal was determined by quantifying and calculating the ratio of the light emitted by mVenus (525 nm) over that emitted by RLuc8 (485 nm) using a PHERAstar FSX Microplate Reader (BMG Labtech).

D3 DAR [2] = biological target: T2, D3 DAR (Homo sapiens, UniProt P35462); assay: Go BRET activation assay, D3 DAR; conditions: EC80 DA (30 nM)
Procedure: (§1) Briefly, HEK293T cells transiently expressing either the D2 DAR or D3 DAR and GαoA-Rluc8, untagged-β1, and mVenus-γ2 were harvested with EBSS, plated in 96-well white plates at 20,000 cells/well in DPBS and incubated at RT for 45 min. […] BRET signal was determined by quantifying and calculating the ratio of the light emitted by mVenus (525 nm) over that emitted by RLuc8 (485 nm) using a PHERAstar FSX Microplate Reader (BMG Labtech).

D2 DAR [3] = biological target: T1, D2 DAR; assay: Go BRET activation assay, D2 DAR; conditions: FIG. 3B right
Procedure: as §1

168 unique GPCRs = assay: DiscoverX gpcrMAX β-arrestin recruitment assay panel; conditions: 30 μM
Procedure: Cmp. 1 was tested as both an agonist (FIG. 5A) or an antagonist (FIG. 5B) at a single high concentration (30 μM) on 168 different GPCRs in the DiscoverX gpcrMAX™ β-arrestin recruitment assay panel (FIGS. 5A and 5B). Assay results are presented as the mean percent activation of indicated GPCRs (for n=2 replicates). For a full description of the DiscoverX gpcrMAX™-GPCR assay panel and methods (see: http://www.DiscoverX.com). […] Data were provided by the National Institute of Mental Health (NIMH) Psychoactive Drug Screening Program (PDSP) (University of North Carolina, Chapel Hill, NC). For experimental details including radioligands used and associated Kd values for each individual target, refer to the PDSP website: http://pdsp.med.unc.edu/. While Cmp. […] The 5-HT6 receptor was not present in the functional panels, however, subsequent testing found Cmp.

5-HT6 receptor = 5-HT6 receptor (Homo sapiens, UniProt P50406); assay: 5-HT6 cAMP recruitment assay; conditions: read-out: IC50, antagonism of the 5-HT6 receptor
[4] = tested on: other dopamine receptor subtypes; assay: DiscoverX β-arrestin assay, other dopamine receptors; conditions: FIG. 1A
From the text: For a secondary-screen and selectivity assays, DAR PathHunter®-arrestin GPCR cell lines from DiscoverX (Fremont, CA) were used. In the D2 DAR PathHunter®-arrestin GPCR cell line, the D2 DAR is overexpressed and fused with a small 42-amino acid fragment of β-galactosidase called ProLink™ on a CHO cellular background expressing a fusion protein of β-arrestin and a larger N-terminal deletion mutant of β-galactosidase (“enzyme acceptor”). When the D2 DAR is activated by dopamine, it stimulates binding of β-arrestin to the ProLink-tagged DAR and the two complementary parts of β-galactosidase form a functional enzyme. When substrate (PathHunter™ Detection reagent) is added, β-galactosidase hydrolyzes it and generates a chemiluminescent signal.

D3 DAR [5] = biological target: T2, D3 DAR; assay: DiscoverX D3 DAR β-arrestin recruitment assay; design: host or cells: CHO
Outline: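 CHO cells overexpressing D3 DAR fused to a ProLink β-galactosidase fragment plus a β-arrestin–β-galactosidase deletion mutant fusion. Receptor activation drives β-arrestin recruitment and enzyme complementation. Chemiluminescent read-out after detection substrate is added.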

D2 DAR [6] = biological target: T1, D2 DAR; assay: DiscoverX D2 DAR β-arrestin recruitment assay; design: host or cells: CHO; conditions: EC80 concentration of DA (1 μM)
Outline: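 CHO cells co-expressing ProLink-tagged D2 DAR and enzyme-acceptor-fused β-arrestin (PathHunter enzyme-fragment complementation). Receptor activation recruits β-arrestin, reconstituting β-galactosidase; detection reagent hydrolysis gives chemiluminescent read-out. Same PathHunter format used for other dopamine receptor subtypes.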

D2 DAR [7] = biological target: T1, D2 DAR; assay: ERK1/2 phosphorylation assay, D2 DAR; design: host or cells: CHO; conditions: FIG. 3D right
Procedure: ERK1/2 Phosphorylation assay: ERK1/2 phosphorylation was measured using the Alphascreen SureFire Ultra ERK kit (PerkinElmer, Waltham, USA). CHO-K1 cells stably expressing either the D2 DAR or D3 DAR were seeded into 384-well small volume white plates at a density of 40,000 cells/well in serum-free Ham's F12 media overnight. […] The plate was shaken for 10 min at RT, followed by the addition of Surefire activation buffer, Surefire reaction buffer, Alphascreen acceptor beads, and Alphascreen donor beads in ratios specified by the manufacturer. The plate was incubated in the dark for 2 h, then read using a PHERAstar FSX Microplate Reader (BMG Labtech).

D3 DAR [8] = biological target: T2, D3 DAR; assay: Functional curve-shift assays using the DiscoverX β-arrestin recruitment assay; design: host or cells: CHO
From the text: To further assess the mechanism of action of Cmp. […] 1 (FIGS. 4B and 4D). […] Average curves are shown (mean±SEM from at least 3 experiments each performed in triplicate). […] In contrast, increasing concentrations of Cmp.
1. FIG. 6A-C panels show concentration-response curves of dopamine in the absence or presence of increasing concentrations of compound. Cmp. […] 18 (FIG. 6A), Cmp. 5 (FIG. 6B), and Cmp. 17 (FIG. 6C), respectively. Average curves are shown (mean±SEM from at least 3 experiments, each performed in triplicate).
A D3 DAR β-arrestin cell line from DiscoverX (Fremont, CA) was used as described in the protocol below (Table 2). A CHO cell line engineered to overexpress the D3 DAR fused with a small 42-amino acid fragment of β-galactosidase called ProLink™ and a fusion protein consisting of β-arrestin and a larger N-terminal deletion mutant of β-galactosidase was used (DiscoverX catalogue number 93-0579C2). When the D3 DAR is activated by dopamine, it stimulates binding of β-arrestin to ProLink-tagged D3 DARs, and the two complementary parts of β-galactosidase form a functional enzyme. When substrate (PathHunter® Detection reagent, DiscoverX 93-0001) is added, β-galactosidase hydrolyzes it and generates a chemiluminescent signal.

T1 sequence (P14416 whole entry): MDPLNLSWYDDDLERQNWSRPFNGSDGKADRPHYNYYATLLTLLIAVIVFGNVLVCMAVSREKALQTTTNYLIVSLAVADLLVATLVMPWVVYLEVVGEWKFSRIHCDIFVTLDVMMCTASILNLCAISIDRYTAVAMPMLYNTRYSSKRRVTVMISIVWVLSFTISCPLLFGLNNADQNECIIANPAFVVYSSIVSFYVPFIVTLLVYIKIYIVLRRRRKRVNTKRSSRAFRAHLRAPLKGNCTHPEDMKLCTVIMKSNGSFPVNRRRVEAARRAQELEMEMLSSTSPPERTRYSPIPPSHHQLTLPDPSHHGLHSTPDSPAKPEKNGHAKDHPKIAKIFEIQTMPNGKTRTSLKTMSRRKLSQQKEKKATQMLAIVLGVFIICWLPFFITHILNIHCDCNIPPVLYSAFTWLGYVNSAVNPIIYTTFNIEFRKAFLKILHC
T2 sequence (P35462 whole entry): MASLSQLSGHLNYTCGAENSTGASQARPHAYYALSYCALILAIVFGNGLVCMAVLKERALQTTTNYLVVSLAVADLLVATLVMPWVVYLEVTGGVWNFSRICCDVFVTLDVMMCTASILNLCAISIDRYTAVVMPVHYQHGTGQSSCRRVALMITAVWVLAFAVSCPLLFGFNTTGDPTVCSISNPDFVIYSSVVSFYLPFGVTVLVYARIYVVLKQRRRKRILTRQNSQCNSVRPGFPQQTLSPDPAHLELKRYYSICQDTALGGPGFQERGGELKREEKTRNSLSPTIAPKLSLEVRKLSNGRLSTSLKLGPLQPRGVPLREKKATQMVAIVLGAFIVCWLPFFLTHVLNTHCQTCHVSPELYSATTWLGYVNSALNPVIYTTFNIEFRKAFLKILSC
Sequence of 5-HT6 receptor (P50406 whole entry): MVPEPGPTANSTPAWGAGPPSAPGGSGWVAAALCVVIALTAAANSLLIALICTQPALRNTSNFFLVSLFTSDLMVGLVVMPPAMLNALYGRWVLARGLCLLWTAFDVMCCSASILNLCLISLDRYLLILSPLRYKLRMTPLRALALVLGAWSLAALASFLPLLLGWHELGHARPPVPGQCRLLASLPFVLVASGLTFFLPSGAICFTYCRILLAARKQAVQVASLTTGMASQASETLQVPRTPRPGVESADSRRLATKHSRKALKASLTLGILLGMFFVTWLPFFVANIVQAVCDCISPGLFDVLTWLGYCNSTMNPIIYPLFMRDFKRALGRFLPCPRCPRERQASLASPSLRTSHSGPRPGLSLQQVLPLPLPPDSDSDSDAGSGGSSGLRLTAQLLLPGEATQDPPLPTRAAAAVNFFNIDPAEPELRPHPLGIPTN

## Cc1ccc(NS(=O)(=O)c2c(C)[nH]c(C)c2C(=O)N2CCCC2)cc1Cl [Cmp. 1]
D2 DAR [1]
  antagonist activity at the D2 DAR, BRET β-arrestin: lacked antagonist activity
D3 DAR [2]; 5 min, read-out: D3 Go BRET Imax
  Emax: > 100%
D3 DAR [2]
  pIC50: 4.30 to 5.00
D2 DAR [3]
  antagonist activity at the D2 DAR, Go activation: lacked antagonist activity
168 unique GPCRs; H1 receptor
  functional activity at the H1 receptor in the functional panels: no functional activity
168 unique GPCRs; agonist mode
  agonist activity in gpcrMAX panel: lacked agonist activity at all 168 GPCRs
168 unique GPCRs; antagonist mode
  antagonist activity in gpcrMAX panel: the only GPCR that was antagonized was the D3 DAR
5-HT6 receptor
  pIC50: < 4.30
[4]
  activity at other dopamine receptor subtypes: no activity
D3 DAR [5]; DiscoverX β-arrestin assay, FIG. 1A, 2A, read-out: IC50, inhibition of dopamine-stimulated β-arrestin recruitment to the D3 DAR
  pIC50: ~4.80
D3 DAR [5]; EC80 concentration of DA (30 nM), read-out: D3 DAR IC50
  pIC50: 4.30 to 5.00
D3 DAR [5]; Imax=maximum inhibition, EC80 DA (30 nM)
  Emax: 80 to 100%
D2 DAR [6]
  D2 DAR Imax: NA (“NA” indicates not active)
D2 DAR [7]
  antagonist activity at the D2 DAR, pERK: lacked antagonist activity
D3 DAR [8]; agonist dopamine, read-out: Functional IC50 for decreasing the Emax of dopamine
  pIC50: 4.77
D3 DAR [8]; agonist pramipexole, read-out: Functional IC50 for decreasing the Emax of pramipexole
  pIC50: 4.85
D3 DAR [8]; versus agonist (dopamine, pramipexole)
  mode of antagonism in curve-shift assays: behaves in a non-competitive manner
